# From US6562843B1, “Substituted 3-pyridyl-4-arylpyrroles, and related therapeutic and prophylactic methods” (Ortho-McNeil Pharmaceutical, Inc., priority 1999, dated 2003)
# Counter-ions that a name gives are not always drawn.
# Experiments:
# TNF-α production = assay: In-Vitro Whole Cell Assay for TNF-α Inhibition (LPS-stimulated PBMC, ELISA); type: cell-based; conditions: LPS overnight, TNF-α by ELISA
# Description: B. In-Vitro Whole Cell Assay for TNF-α Inhibition
# Freshly obtained venous blood was anticoagulated with heparin, diluted with an equal volume of phosphate buffered saline (“PBS”) and placed in a sterile tube or other container. Aliquots (30 mL) of this mixture were transferred to centrifuge tubes which were underlaid with Ficoll-Hypaque (15 mL). The prepared tubes were centrifuged at 400×g, without braking, for 30 min at room temperature. Approximately ½ to ⅔ of the platelet layer above the mononuclear cell band was removed with a pipette. The majority of the mononuclear cell layer was carefully removed using a pipette and these PBMC's were diluted with PBS and spun at 600×g for 15 min. The resulting PBMC's were washed with another portion of PBS and spun at 400×g for 10 min at room temperature. The recovered pellets were diluted in low endotoxin RPMI/1% FCS culture medium, and gave a cell concentration of 0.5-2.0×10^6 PMBC/mL. A small volume of the suspension was removed for counting on a hemocytometer and the remaining preparation was centrifuged at 200×g for 15 min at room temperature. The recovered pelleted PMBC's were resuspended in RPMI/1% FCS to a concentration of 1.67×10^6/mL.
# To run the assay, the PBMC suspension (180 μL) was transferred to duplicate wells of a 96-well flat-bottom microtiter plate and incubated for 1 h at 37° C. A solution of test compound (10 μL: prepared at 20× the desired final concentration) was added to each well and the plate was incubated for 1 h at 37° C. A solution (10 μL) of LPS in RPMI/1% FCS (200 ng/mL) was added and the wells were incubated overnight at 37° C. The supernate (100 μL) was removed from each well and diluted with RPMI/1% FCS (400 μL). The samples were analyzed for TNF-α using a commercial ELISA kit (Genzyme).
# The compounds were tested for their ability to inhibit TNF-α production. The IC50 nM results are listed for the indicated compounds.
# [1] = tested on: LPS-induced TNF-α production; assay: In Vivo Rodent Assay for Inhibition of TNF-α Production (mice); parameters: species or system Mice (BALB/cJ females); conditions: oral dosing, LPS 1 mg/kg i.p., serum TNF-α; for inhibition in vivo at 10 mg/kg / inhibition in vivo at 25 mg/kg: Mus musculus, 1 h
# Description: C. In Vivo Rodent Assay for Inhibition of TNF-α Production
# Mice (BALB/cJ females, Jackson Laboratories) or rats (Lewis males, Charles River) were fasted for 30 min prior to oral dosing with 5-10 mL/kg of test compound at 5-50 mg/kg. Thirty minutes after dosing, the animals were injected intraperitoneally with LPS at 1 mg/kg and returned to their cages for 1 h. Animals were anesthetized by CO2, exsanguinated by cardiac puncture and whole blood collected (0.1-0.7 mL). The blood was allowed to clot and serum was transferred to a centrifuge tube. This sample was centrifuged, and serum was collected, aliquoted and frozen at −80° C. Samples were tested by commercial ELISA's for TNF-α (Endogen for mouse TNF-α and Biosource for rat TNF-α).
# [2] = molecular target: T1, purified recombinant p38 (6×His-p38 expressed in E.coli) (Homo sapiens, UniProt Q16539); assay: p38 Inhibition In-Vitro Enzyme Assay; type: biochemical; conditions: myelin basic protein substrate, 33P-ATP; for inhibition at 10 µM: read-out: % p38 inhib @ 10 μM
# T1 construct: 6xHis; made in house; host or cells: E. coli
# Description: A. p38 Inhibition In-Vitro Enzyme Assay
# A solution (38 μL) of purified recombinant p38 (6×His-p38 expressed in E.coli), myelin basic protein substrate (determined empirically), and a buffer of pH 7.5 (Hepes:25 mM, MgCl2:10 mM, MnCl2:10 mM) were added to 92 wells of a 96-well round bottom polypropylene plate. The amount of enzyme was determined empirically based on the linear range of the assay and the acceptable signal to noise ratio. The remaining wells were used for control “CTRL”) and background (“BKG”). The CTRL was prepared with the enzyme, substrate buffer and 2% DMSO, and the BKG was prepared with substrate buffer and 2% DMSO.
# A solution (12 μL) of the test compound in DMSO was added to the testing wells. […] The ATP/^33P-ATP solution (10 μL containing 50 μM unlabeled ATP and 1 μCi ^33P-ATP) was added to all wells and the completed plates were mixed and incubated at 30° C. for 30 min. Ice-cold 50% TCA/10 mM sodium phosphate (60 μL) was added to each well and the plates were kept on ice for 15 min. The contents of each well were transferred to the wells of a 96-well filterplate (Millipore, MultiScreen-DP) and the filterplate was placed on a vacuum manifold fitted with a waste collection tray. The wells were washed five times with 10% TCA/10 mM sodium phosphate (200 μL) under vacuum. MicroScint-20 scintillant was added, and the plates were sealed using Topseal-S sheets and counted in a Packard TopCount scintillation counter using a ^33P liquid program with color quench correction, where the output is in color quench-corrected cpm. The % inhibition of each test compound as shown in Table 2 was calculated by the following formula: % inhibition=[1−(sample−BKG)/(CTRL−BKG)]×100.
# […] In addition, the IC50 was calculated for some compounds using the Deltagraph 4-parameter curve-fitting program.
# T1 sequence (Q16539 whole entry): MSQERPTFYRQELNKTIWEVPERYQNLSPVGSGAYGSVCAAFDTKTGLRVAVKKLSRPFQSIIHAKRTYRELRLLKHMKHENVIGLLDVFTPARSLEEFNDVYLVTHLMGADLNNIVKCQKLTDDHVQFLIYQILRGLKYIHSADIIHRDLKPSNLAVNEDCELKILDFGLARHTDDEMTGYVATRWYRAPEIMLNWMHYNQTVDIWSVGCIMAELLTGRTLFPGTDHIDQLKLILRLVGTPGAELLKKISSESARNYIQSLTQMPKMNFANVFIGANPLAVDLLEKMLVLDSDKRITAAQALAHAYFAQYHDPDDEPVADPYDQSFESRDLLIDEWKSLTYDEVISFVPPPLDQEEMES
Structure (SMILES),IC50 (TNF-α production) [nM],also measured
Fc1ccc(-c2cn(CCN3CCCC3)c(CCCc3ccccc3)c2-c2ccncc2)cc1 [compound 45],3,inhibition in vivo at 10 mg/kg ([1]; 10 mg/kg): 99%; inhibition in vivo at 25 mg/kg ([1]; 25 mg/kg): 99%
COc1cccc(-c2cn(CCCc3ccccc3)cc2-c2ccncc2)c1 [compound 23],2000,–
CS(=O)(=O)c1ccc(-n2cc(-c3ccncc3)c(-c3ccc(F)c(F)c3)c2)cc1 [compound 5],30,–
O=[N+]([O-])c1ccc(-n2cc(-c3ccncc3)c(-c3ccc(F)c(F)c3)c2)cc1 [compound 3],2,% p38 inhib @ 10 μM [2]: 80%; TNF-α % Inhibition Mouse ([1]; 10 mg/kg): 81%
COc1cccc(-c2cn(-c3ccc([N+](=O)[O-])cc3[N+](=O)[O-])cc2-c2ccncc2)c1 [compound 21],80,–
Cn1cc(-c2ccncc2)c(-c2cccc(C(F)(F)F)c2)c1 [compound 9],125,–
Cn1cc(-c2ccccc2)c(-c2ccncc2)c1 [compound 38],350,–
COc1cccc(-c2c[nH]cc2-c2ccncn2)c1 [compound 24],250,–
Cn1cc(-c2ccncc2)c(-c2cc(F)cc(C(F)(F)F)c2)c1 [compound 8],1500,–
Cn1cc(-c2ccncc2)c(-c2ccc([S+](C)[O-])cc2)c1 (centres unmarked) [compound 37],3000,–
Cn1cc(-c2ccncc2)c(-c2ccc(F)c(F)c2)c1 [compound 2],30,% p38 inhib @ 10 μM [2]: 15%
"Cn1cc(-c2ccncc2)c(-c2ccc(F)cc2)c1 [compound 29, 1-Methyl-3-(4-fluorophenyl)-4-(4-pyridyl)pyrrole]",200,inhibition at 10 µM [2]: 34%
Cn1cc(-c2ccncc2)c(-c2cc(F)cc(F)c2)c1 [compound 6],175,–
O=[N+]([O-])c1ccc(-n2cc(-c3ccncc3)c(-c3ccc(F)cc3)c2)cc1 [compound 30],2,% p38 inhib @ 10 μM [2]: 70%; TNF-α % Inhibition Mouse ([1]; 25 mg/kg): 53%
Cn1cc(-c2ccncc2)c(-c2ccsc2)c1 [compound 25],900,–
Cn1cc(-c2ccncc2)c(-c2cccc(F)c2)c1 [compound 10],125,–
CN(C)c1ccc(-c2cn(C)cc2-c2ccncc2)cc1 [compound 36],500,–
Fc1ccc(-c2cn(CCN3CCOCC3)c(CCCc3ccccc3)c2-c2ccncc2)cc1 [compound 43],1,inhibition in vivo at 10 mg/kg ([1]; 10 mg/kg): 93%; inhibition in vivo at 25 mg/kg ([1]; 25 mg/kg): 93%
"Oc1cccc(-c2c[nH]cc2-c2ccncc2)c1 [compound 12, 3-(3-Hydroxyphenyl)-4-(4-pyridyl)pyrrole Hydrobromide]",300,–
CN1CCCC(Cn2cc(-c3ccc(F)cc3)c(-c3ccncc3)c2CCCc2ccccc2)C1 (centres unmarked) [compound 42],2,inhibition in vivo at 10 mg/kg ([1]; 10 mg/kg): 100%; inhibition in vivo at 25 mg/kg ([1]; 25 mg/kg): 100%
N#Cc1ccc(-n2cc(-c3ccncc3)c(-c3ccc(F)c(F)c3)c2)cc1 [compound 4],2,inhibition at 10 µM [2]: 21%

Structure (SMILES),IC50 (TNF-α production) [nM],also measured
"Fc1ccc(-c2c[nH]c(CCCN3CCOCC3)c2-c2ccncc2)cc1 [compound 47, 4-(4-Fluorophenyl)-2-(3-morpholinopropyl)-3-(4-pyridyl)pyrrole]",177,inhibition in vivo at 25 mg/kg ([1]; 25 mg/kg): 77%
"Nc1ccc(-n2cc(-c3ccc(F)cc3)c(-c3ccncc3)c2CCCc2ccccc2)cc1 [compound 33, 1-(4-Aminophenyl)-4-(4-fluorophenyl)-2-(3-phenylpropyl)-3-(4-pyridyl)pyrrole]",8,inhibition at 10 µM [2]: 51%
Cn1cc(-c2ccncc2)c(-c2cccc([N+](=O)[O-])c2)c1 [compound 11],100,inhibition in vivo at 10 mg/kg ([1]; 10 mg/kg): 74%; inhibition in vivo at 25 mg/kg ([1]; 25 mg/kg): 94%
COc1cccc(-c2cn(-c3ccc(N)cc3)cc2-c2ccncc2)c1 [compound 17],95,TNF-α % Inhibition Mouse ([1]; 25 mg/kg): 66%
COc1cccc(-c2cn(-c3ccccn3)cc2-c2ccncc2)c1 [compound 20],150,–
CN(C)CCCn1cc(-c2ccc(F)cc2)c(-c2ccncc2)c1CCCc1ccccc1 [compound 44],8,inhibition in vivo at 10 mg/kg ([1]; 10 mg/kg): 100%; inhibition in vivo at 25 mg/kg ([1]; 25 mg/kg): 100%
Cn1cc(-c2ccncc2)c(-c2ccncc2)c1 [compound 34],3000,–
Fc1ccc(-c2cn(CCN3CCCCC3)c(CCCc3ccccc3)c2-c2ccncc2)cc1 [compound 40],3,inhibition in vivo at 10 mg/kg ([1]; 10 mg/kg): 96%; inhibition in vivo at 25 mg/kg ([1]; 25 mg/kg): 96%
COc1cccc(-c2cn(-c3ccc([N+](=O)[O-])cc3)cc2-c2ccncc2)c1 [compound 15],20,–
"O=[N+]([O-])c1ccc(-n2cc(-c3ccc(F)cc3)c(-c3ccncc3)c2CCCc2ccccc2)cc1 [compound 31, 4-(4-Fluorophenyl)-1-(4-nitrophenyl)-2-(3-phenylpropyl)-3-(4-pyridyl)pyrrole]",15,inhibition at 10 µM [2]: 67%; inhibition in vivo at 10 mg/kg ([1]; 10 mg/kg): 47%
"COc1cccc(-c2c[nH]cc2-c2ccncc2)c1 [compound 13, 3-(3-Methoxyphenyl)-4-(4-pyridyl)pyrrole]",55,–
Fc1ccc(-c2c[nH]cc2-c2ccncc2)cc1F [compound 1],20,TNF-α % Inhibition Mouse ([1]; 25 mg/kg): 96%
Fc1ccc(-c2cn(CCCN3CCCCC3)c(CCCc3ccccc3)c2-c2ccncc2)cc1 [compound 39],5,inhibition in vivo at 10 mg/kg ([1]; 10 mg/kg): 36%; inhibition in vivo at 25 mg/kg ([1]; 25 mg/kg): 100%
COc1cccc(-c2cn(-c3ccc(NC(C)=O)cc3)cc2-c2ccncc2)c1 [compound 16],75,TNF-α % Inhibition Mouse ([1]; 25 mg/kg): 50%
COc1cccc(-c2cn(-c3ccc(S(C)(=O)=O)cc3)cc2-c2ccncc2)c1 [compound 19],30,TNF-α % Inhibition Mouse ([1]; 25 mg/kg): −127%
COc1ccc(-c2cn(C)cc2-c2ccncc2)cc1 [compound 26],2000,–
"OCCCc1[nH]cc(-c2ccc(F)cc2)c1-c1ccncc1 [compound 46, 4-(4-Fluorophenyl)-2-(3-hydroxypropyl)-3-(4-pyridyl)pyrrole]",544,–
CN1CCCC1CCn1cc(-c2ccc(F)cc2)c(-c2ccncc2)c1CCCc1ccccc1 (centres unmarked) [compound 41],5,inhibition in vivo at 10 mg/kg ([1]; 10 mg/kg): 100%; inhibition in vivo at 25 mg/kg ([1]; 25 mg/kg): 100%
CSc1ccc(-c2cn(C)cc2-c2ccncc2)cc1 [compound 35],250,–
Fc1ccc(-c2c[nH]cc2-c2ccncc2)cc1 [compound 27],90,inhibition in vivo at 10 mg/kg ([1]; 10 mg/kg): 73%; inhibition in vivo at 25 mg/kg ([1]; 25 mg/kg): 100%
Cn1cc(-c2ccncc2)c(-c2ccc(F)c(C(F)(F)F)c2)c1 [compound 7],100,inhibition in vivo at 10 mg/kg ([1]; 10 mg/kg): 61%; inhibition in vivo at 25 mg/kg ([1]; 25 mg/kg): 79%
